# According to paper PMC8333425, “Discovery of a dual Ras and ARF6 inhibitor from a GPCR endocytosis screen” (Nature Communications, 2021):
# Key:
# Assay in all cases: KINOMEscan kinase binding assay
# [1] = biological target: T1, 384 kinases from the human genome (Homo sapiens, UniProt P49840); details: kinase GSK3A (Entrez GSK3A)
# T1 construct: purchased Eurofin/DiscoverX
# How it was run: (§1)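 A panel of 384 human kinases was profiled by KINOMEscan binding in the presence of 10 µM compound. Kinase–ligand binding was given as percent of DMSO control, averaged from duplicates in a single run, with an S(10) selectivity score.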
# [2] = biological target: T2, 384 kinases from the human genome (Homo sapiens, UniProt P0C1S8); details: kinase WEE2 (Entrez WEE2)
# T2 construct: purchased Eurofin/DiscoverX
# How it was run: as §1
# [3] = biological target: T3, 384 kinases from the human genome (Homo sapiens, UniProt P51817); details: kinase PRKX (Entrez PRKX)
# T3 construct: purchased Eurofin/DiscoverX
# How it was run: as §1
# [4] = biological target: T4, 384 kinases from the human genome (Homo sapiens, UniProt Q04912); details: kinase MST1R (Entrez MST1R)
# T4 construct: purchased Eurofin/DiscoverX
# How it was run: as §1
# [5] = biological target: T5, 384 kinases from the human genome (Homo sapiens, UniProt P06241); details: kinase FYN (Entrez FYN)
# T5 construct: purchased Eurofin/DiscoverX
# How it was run: as §1
# [6] = biological target: T6, 384 kinases from the human genome (Homo sapiens, UniProt P35916); details: kinase FLT4 (Entrez FLT4)
# T6 construct: purchased Eurofin/DiscoverX
# How it was run: as §1
# [7] = biological target: T7, 384 kinases from the human genome (Homo sapiens, UniProt P22455); details: kinase FGFR4 (Entrez FGFR4)
# T7 construct: purchased Eurofin/DiscoverX
# How it was run: as §1
# [8] = biological target: T8, 384 kinases from the human genome (Homo sapiens, UniProt O75460); details: kinase ERN1 (Entrez ERN1)
# T8 construct: purchased Eurofin/DiscoverX
# How it was run: as §1
# [9] = biological target: T9, 384 kinases from the human genome (Homo sapiens, UniProt P27448); details: kinase MARK3 (Entrez MARK3)
# T9 construct: purchased Eurofin/DiscoverX
# How it was run: as §1
# [10] = biological target: T10, 384 kinases from the human genome (Homo sapiens, UniProt Q9BWU1); details: kinase CDK11 (Entrez CDK19)
# T10 construct: purchased Eurofin/DiscoverX
# How it was run: as §1
# [11] = biological target: T11, 384 kinases from the human genome (Homo sapiens, UniProt Q00532); details: kinase CDKL1 (Entrez CDKL1)
# T11 construct: purchased Eurofin/DiscoverX
# How it was run: as §1
# [12] = biological target: T12, 384 kinases from the human genome (Homo sapiens, UniProt O15197); details: kinase EPHB6 (Entrez EPHB6)
# T12 construct: purchased Eurofin/DiscoverX
# How it was run: as §1
# [13] = biological target: T13, 384 kinases from the human genome (Homo sapiens, UniProt Q7KZI7); details: kinase MARK2 (Entrez MARK2)
# T13 construct: purchased Eurofin/DiscoverX
# How it was run: as §1
# [14] = biological target: T14, 384 kinases from the human genome (Homo sapiens, UniProt P21709); details: kinase EPHA1 (Entrez EPHA1)
# T14 construct: purchased Eurofin/DiscoverX
# How it was run: as §1
# [15] = biological target: T15, 384 kinases from the human genome (Homo sapiens, UniProt Q12852); details: kinase DLK (Entrez MAP3K12)
# T15 construct: purchased Eurofin/DiscoverX
# How it was run: as §1
# T5 sequence (P06241 whole entry): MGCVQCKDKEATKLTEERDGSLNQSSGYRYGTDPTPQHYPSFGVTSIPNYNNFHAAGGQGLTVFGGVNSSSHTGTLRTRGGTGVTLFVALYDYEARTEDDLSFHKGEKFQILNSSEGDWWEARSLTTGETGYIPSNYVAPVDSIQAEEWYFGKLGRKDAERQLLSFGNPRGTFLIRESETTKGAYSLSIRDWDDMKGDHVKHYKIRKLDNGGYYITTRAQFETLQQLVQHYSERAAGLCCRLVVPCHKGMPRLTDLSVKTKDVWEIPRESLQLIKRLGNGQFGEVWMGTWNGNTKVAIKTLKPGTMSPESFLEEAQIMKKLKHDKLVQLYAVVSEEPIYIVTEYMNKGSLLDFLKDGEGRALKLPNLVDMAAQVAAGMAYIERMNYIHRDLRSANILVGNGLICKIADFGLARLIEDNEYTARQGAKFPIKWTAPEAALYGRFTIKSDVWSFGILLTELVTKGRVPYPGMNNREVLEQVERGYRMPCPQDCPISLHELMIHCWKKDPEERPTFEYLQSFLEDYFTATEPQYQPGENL
# T7 sequence (P22455 22-802): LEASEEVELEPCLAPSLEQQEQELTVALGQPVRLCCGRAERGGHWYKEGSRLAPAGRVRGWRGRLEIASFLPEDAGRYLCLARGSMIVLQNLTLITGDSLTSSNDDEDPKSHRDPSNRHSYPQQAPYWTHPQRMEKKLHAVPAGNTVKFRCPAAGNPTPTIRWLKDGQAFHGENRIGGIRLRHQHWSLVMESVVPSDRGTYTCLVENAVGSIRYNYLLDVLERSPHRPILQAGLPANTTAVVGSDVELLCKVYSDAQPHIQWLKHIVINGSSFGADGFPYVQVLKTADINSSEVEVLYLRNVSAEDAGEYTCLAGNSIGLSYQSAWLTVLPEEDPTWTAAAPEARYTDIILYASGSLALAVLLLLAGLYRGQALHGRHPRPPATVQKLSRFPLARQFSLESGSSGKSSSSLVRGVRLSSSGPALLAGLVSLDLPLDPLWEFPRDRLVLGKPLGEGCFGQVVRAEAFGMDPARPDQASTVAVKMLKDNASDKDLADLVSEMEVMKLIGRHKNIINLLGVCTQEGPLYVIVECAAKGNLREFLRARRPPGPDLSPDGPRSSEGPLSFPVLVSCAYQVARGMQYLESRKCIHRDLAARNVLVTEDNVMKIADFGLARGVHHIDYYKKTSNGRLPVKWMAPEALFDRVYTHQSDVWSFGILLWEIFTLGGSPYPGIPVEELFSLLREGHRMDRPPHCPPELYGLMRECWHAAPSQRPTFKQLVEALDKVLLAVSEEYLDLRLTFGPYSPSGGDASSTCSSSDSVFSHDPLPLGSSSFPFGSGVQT
# T2 sequence (P0C1S8 whole entry): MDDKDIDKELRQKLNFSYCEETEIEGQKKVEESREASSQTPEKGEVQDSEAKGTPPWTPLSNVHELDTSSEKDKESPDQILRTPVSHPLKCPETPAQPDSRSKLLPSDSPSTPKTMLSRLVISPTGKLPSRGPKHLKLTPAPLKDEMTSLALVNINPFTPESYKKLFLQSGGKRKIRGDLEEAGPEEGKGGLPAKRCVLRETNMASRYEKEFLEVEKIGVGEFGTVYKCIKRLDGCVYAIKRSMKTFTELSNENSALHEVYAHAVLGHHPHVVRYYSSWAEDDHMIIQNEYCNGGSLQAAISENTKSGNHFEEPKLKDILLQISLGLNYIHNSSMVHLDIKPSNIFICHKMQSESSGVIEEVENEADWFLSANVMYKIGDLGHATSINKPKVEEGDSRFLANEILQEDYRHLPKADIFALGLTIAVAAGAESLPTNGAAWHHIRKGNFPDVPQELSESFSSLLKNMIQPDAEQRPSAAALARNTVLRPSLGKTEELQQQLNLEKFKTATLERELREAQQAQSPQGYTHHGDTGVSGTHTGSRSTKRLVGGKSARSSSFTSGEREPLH
# T3 sequence (P51817 whole entry): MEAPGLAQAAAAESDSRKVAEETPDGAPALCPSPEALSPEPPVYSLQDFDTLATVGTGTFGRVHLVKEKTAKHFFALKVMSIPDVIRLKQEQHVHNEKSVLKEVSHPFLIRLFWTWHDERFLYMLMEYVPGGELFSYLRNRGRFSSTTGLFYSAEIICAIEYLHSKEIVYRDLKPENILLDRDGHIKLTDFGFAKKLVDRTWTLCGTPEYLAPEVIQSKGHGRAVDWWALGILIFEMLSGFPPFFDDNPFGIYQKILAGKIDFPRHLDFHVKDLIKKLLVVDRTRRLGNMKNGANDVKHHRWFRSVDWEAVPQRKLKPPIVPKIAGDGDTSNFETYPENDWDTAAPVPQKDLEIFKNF
# T12 sequence (O15197 32-1021): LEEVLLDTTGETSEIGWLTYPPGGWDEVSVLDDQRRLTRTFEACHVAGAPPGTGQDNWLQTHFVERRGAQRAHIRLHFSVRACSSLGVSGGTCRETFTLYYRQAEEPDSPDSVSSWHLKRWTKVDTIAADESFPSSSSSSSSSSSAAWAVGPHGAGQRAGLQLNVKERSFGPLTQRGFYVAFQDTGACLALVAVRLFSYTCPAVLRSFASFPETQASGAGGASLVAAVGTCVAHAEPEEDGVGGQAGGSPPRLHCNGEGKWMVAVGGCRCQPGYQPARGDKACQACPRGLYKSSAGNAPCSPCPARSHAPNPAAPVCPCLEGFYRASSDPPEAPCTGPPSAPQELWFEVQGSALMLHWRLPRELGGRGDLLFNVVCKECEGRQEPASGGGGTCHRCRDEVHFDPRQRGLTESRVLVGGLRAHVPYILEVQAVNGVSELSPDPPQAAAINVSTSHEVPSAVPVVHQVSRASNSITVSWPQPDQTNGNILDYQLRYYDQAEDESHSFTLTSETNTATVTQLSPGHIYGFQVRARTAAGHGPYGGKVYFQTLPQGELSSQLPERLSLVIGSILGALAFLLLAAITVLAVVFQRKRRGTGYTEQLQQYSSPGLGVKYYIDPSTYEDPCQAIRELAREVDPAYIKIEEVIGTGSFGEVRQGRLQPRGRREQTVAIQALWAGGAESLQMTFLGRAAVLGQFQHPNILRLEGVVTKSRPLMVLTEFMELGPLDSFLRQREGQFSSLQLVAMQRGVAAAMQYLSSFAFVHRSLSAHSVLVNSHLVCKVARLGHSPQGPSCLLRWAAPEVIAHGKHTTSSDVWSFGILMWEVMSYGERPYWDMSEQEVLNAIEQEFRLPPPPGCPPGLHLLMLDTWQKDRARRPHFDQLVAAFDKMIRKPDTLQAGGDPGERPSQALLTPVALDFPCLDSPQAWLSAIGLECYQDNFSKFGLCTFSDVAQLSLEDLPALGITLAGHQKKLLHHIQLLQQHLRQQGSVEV
# T15 sequence (Q12852 whole entry): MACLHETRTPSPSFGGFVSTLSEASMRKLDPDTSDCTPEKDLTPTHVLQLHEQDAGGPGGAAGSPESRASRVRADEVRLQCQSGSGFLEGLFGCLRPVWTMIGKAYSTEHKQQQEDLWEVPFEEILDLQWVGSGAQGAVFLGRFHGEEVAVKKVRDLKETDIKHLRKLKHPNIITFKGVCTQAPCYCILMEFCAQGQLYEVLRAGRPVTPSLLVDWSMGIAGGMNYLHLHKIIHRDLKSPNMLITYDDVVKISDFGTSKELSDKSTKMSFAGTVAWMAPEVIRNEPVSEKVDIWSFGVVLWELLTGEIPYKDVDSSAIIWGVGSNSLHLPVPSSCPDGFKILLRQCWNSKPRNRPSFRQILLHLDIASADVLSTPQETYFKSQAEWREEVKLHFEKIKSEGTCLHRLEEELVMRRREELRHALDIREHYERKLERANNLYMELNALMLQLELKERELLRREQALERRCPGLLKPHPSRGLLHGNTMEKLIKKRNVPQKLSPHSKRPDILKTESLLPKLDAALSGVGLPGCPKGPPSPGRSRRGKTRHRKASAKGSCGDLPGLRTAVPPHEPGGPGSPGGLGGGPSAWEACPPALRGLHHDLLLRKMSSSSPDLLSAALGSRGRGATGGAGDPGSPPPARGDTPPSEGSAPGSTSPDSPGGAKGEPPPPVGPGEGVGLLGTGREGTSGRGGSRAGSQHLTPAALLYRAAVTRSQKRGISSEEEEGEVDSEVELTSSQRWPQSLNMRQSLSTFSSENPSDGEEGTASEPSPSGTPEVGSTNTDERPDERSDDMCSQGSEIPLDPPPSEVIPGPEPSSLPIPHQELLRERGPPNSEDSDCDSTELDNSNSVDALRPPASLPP
# T9 sequence (P27448 whole entry): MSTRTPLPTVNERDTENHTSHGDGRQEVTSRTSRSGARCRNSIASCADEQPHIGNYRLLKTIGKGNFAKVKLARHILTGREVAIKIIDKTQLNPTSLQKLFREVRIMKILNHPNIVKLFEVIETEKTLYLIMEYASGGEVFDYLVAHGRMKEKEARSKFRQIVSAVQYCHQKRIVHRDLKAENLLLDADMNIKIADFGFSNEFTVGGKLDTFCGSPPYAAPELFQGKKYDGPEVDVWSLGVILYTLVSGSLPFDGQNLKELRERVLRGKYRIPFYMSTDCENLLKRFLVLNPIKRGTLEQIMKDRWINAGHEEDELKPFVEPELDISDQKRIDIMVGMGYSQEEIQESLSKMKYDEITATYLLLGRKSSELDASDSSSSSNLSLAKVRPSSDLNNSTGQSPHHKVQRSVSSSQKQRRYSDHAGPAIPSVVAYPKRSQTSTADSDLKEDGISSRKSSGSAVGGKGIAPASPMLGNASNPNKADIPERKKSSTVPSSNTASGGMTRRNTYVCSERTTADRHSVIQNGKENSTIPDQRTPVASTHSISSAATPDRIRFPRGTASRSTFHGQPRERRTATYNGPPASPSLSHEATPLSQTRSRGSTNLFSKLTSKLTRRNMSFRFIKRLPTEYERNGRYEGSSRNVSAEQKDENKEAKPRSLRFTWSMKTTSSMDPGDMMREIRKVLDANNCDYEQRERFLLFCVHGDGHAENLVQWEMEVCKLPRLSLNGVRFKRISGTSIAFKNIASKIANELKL
smiles,measurement,setting,value
CC(C)C(=O)N1CCN(c2ccc(NC(=O)c3cc4ccccc4o3)cc2Cl)CC1 [Compound 21],Percent Control,[1],92%
same,Percent Control,[2],100%
same,Percent Control,[3],100%
same,Percent Control,[4],91%
same,Percent Control,[5],67%
same,Percent Control,[6],89%
same,Percent Control,[7],91%
same,Percent Control,[8],55%
same,Percent Control,[9],100%
same,Percent Control,[10],100%
same,Percent Control,[11],100%
same,Percent Control,[12],98%
same,Percent Control,[13],80%
same,Percent Control,[14],89%
same,Percent Control,[15],100%
